Measured values published in US11945811B2, “Potassium channel inhibitors” (ACESION PHARMA APS, priority 2021, dated 2024).

Each compound was assayed against T1, human SK3 channel (hKCa2.3) (Homo sapiens, UniProt Q9UGI6) (assay: Automated patch clamping (QPatch 16 HT whole-cell recordings)). Details: HEK-293 cells stably expressing hKCa2.3; currents measured at −80 mV; normalized to N-methyl bicuculline; read-out: IC50 in the Automated patch clamping assay (SK3 channel inhibition).
T1 construct: expressed in transfected cells
Type: cell-based
Method: Automated whole cell patch-clamp recordings were performed using a QPatch 16 HT system and single-hole Qplates (Sophion, Denmark) on HEK-293 cells stably expressing the human SK3 channel (hKCa2.3). Cells were cultured and prepared for experiments using normal cell culturing procedures. A total of 4-5 million cells were used per experiment. The Qpatch automatically generates giga sealing, whole-cell formation, compound application and recording of current. hKCa2.3 currents were recorded in symmetrical K^+ solutions. The intracellular/pipette solution contained 154 mM KCl, 10 mM HEPES and 10 mM EGTA. CaCl2 is added to give calculated free concentrations of Ca^2+ of 0.4 μM and MgCl2 is added to give a free concentration of 1 mM. In order to maintain a total [K^+] of 156 mM (corresponding to the concentration in the extracellular ringer) a fixed amount of KOH (15 mM) is added, thereafter pH is adjusted with HCl to pH=7.2. Expected osmolarity: 275 mOsm. Sucrose was added to a final osmolarity around 295 mosm. The extracellular solution consisted of (in mM): CaCl2 0.1, MgCl2 3, KCl 150, HEPES 10 and glucose 10, pH=7.4 adjusted with KOH. Osmolarity between 285-295 mosm. The cells were held at 0 mV and hKCa2.3 currents were elicited by a linear voltage ramp from −80 mV to +80 mV (200 ms in duration) applied every 5th second.
The compound application protocol consisted of 12 recording periods lasting 200 s: 1) Baseline recordings in extracellular solution; 2) Application of the positive control N-methyl bicuculline (100 μM), which is characterized by full efficacy, fast on- and off-rate; 3-4) Wash-out; 5-10) Increasing concentrations of test compound to establish an IC50 value; 11-12) Wash-out; 13) positive control with compound NS8593 (N-[(1R)-1,2,3,4-tetrahydro-1-naphthalenyl]-1H-benzimidazol-2-amine) (1 μM) or with N-methyl bicuculline (100 μM). Data were sampled at 10 kHz, 4th order Bessel filter, cut-off frequency 3 kHz. Currents were compensated for run-down. Potency was quantified as the concentration needed to inhibit half of the SK channel activity and reported as an IC50 value.
All effects of compounds of the present invention as tested were normalized to the observed inhibitory effect of N-methyl bicuculline. Currents were measured at −80 mV.

IC50	SMILES
< 1 µM	CC(CO)(Nc1nc2c(Cn3ccoc3=N)cccc2[nH]1)c1cccc(OC(F)(F)F)c1 (single isomer, unassigned; (+)) [Example 27a, (+)-2-({4-[(2-imino-2,3-dihydro-1,3-oxazol-3-yl)methyl]-1H-1,3-benzodiazol-2-yl}amino)-2-[3-(trifluoromethoxy)phenyl]propan-1-ol]
< 30 µM	CC(CO)(Nc1nc2c(Cn3ccoc3=N)cccc2[nH]1)c1cc(F)cc(Cl)c1 (single isomer, unassigned; (+)) [Example 45b, (+)-2-(3-chloro-5-fluorophenyl)-2-({4-[(2-imino-2,3-dihydro-1,3-oxazol-3-yl)methyl]-1H-1,3-benzodiazol-2-yl}amino)propan-1-ol]
< 1 µM	Cc1coc(=N)n1Cc1cccc2[nH]c(NC(C)(CO)c3ccc(F)c(Cl)c3)nc12 (centres unmarked) [Example 13, 2-(3-chloro-4-fluorophenyl)-2-({4-[(2-imino-4-methyl-2,3-dihydro-1,3-oxazol-3-yl)methyl]-1H-1,3-benzodiazol-2-yl}amino)propan-1-ol]
< 1 µM	Cc1coc(=N)n1Cc1cccc2[nH]c(NC(C)(CO)c3ccc(F)c(Cl)c3)nc12 (single isomer, unassigned; (-)) [Example 13a, (−)-2-(3-chloro-4-fluorophenyl)-2-({4-[(2-imino-4-methyl-2,3-dihydro-1,3-oxazol-3-yl)methyl]-1H-1,3-benzodiazol-2-yl}amino)propan-1-ol]
< 1 µM	CC(CO)(Nc1nc2c(Cn3ccoc3=N)cccc2[nH]1)c1ccc(F)c(Cl)c1 (single isomer, unassigned; (-)) [Example 8a, (−)-2-(3-chloro-4-fluorophenyl)-2-({4-[(2-imino-2,3-dihydro-1,3-oxazol-3-yl)methyl]-1H-1,3-benzodiazol-2-yl}amino)propan-1-ol]
< 1 µM	Cc1coc(=N)n1Cc1cccc2[nH]c(NC(C)(CO)c3cccc(C(F)(F)F)c3)nc12 (centres unmarked) [Example 23, 2-({4-[(2-imino-4-methyl-2,3-dihydro-1,3-oxazol-3-yl)methyl]-1H-1,3-benzodiazol-2-yl}amino)-2-[3-(trifluoromethyl)phenyl]propan-1-ol]
< 30 µM	CC(CO)(Nc1nc2c(Cn3cc[nH]c3=O)cccc2[nH]1)c1ccc(F)c(Cl)c1 (centres unmarked) [Example 33, 1-[(2-{[2-(3-chloro-4-fluorophenyl)-1-hydroxypropan-2-yl]amino}-1H-1,3-benzodiazol-4-yl)methyl]-2,3-dihydro-1H-imidazol-2-one]
< 30 µM	CC(CO)(Nc1nc2c(CNc3ccon3)cccc2[nH]1)c1cc(Cl)ccc1F (single isomer, unassigned; (+)) [Example 49a, (+)-2-(5-chloro-2-fluorophenyl)-2-[(4-{[(1,2-oxazol-3-yl)amino]methyl}-1H-1,3-benzodiazol-2-yl)amino]propan-1-ol]
< 30 µM	CCC(CO)(Nc1nc2c(Cn3ccoc3=N)cccc2[nH]1)c1cccc(C(F)(F)F)c1 (centres unmarked) [Example 25, 2-({4-[(2-imino-2,3-dihydro-1,3-oxazol-3-yl)methyl]-1H-1,3-benzodiazol-2-yl}amino)-2-[3-(trifluoromethyl)phenyl]butan-1-ol]
< 30 µM	CC(CO)(Nc1nc2c(CNc3ccon3)cccc2[nH]1)c1cc(F)cc(Cl)c1 (single isomer, unassigned; (-)) [Example 46a, (−)-2-(3-chloro-5-fluorophenyl)-2-[(4-{[(1,2-oxazol-3-yl)amino]methyl}-1H-1,3-benzodiazol-2-yl)amino]propan-1-ol]
< 30 µM	CC(CO)(Nc1nc2c(CNc3ccncn3)cccc2[nH]1)c1ccc(F)c(Cl)c1 (centres unmarked) [Example 11, 2-(3-chloro-4-fluorophenyl)-2-[(4-{[(pyrimidin-4-yl)amino]methyl}-1H-1,3-benzodiazol-2-yl)amino]propan-1-ol]
< 30 µM	N=c1occn1Cc1cccc2[nH]c(NC3(c4cccc(Cl)c4)CC3)nc12 [Example 1, N-[1-(3-chlorophenyl)cyclopropyl]-4-[(2-imino-2,3-dihydro-1,3-oxazol-3-yl)methyl]-1H-1,3-benzodiazol-2-amine]
< 30 µM	COCC(C)(Nc1nc2c(Cn3ccoc3=N)cccc2[nH]1)c1ccc(F)c(Cl)c1 (centres unmarked) [Example 14, N-[2-(3-chloro-4-fluorophenyl)-1-methoxypropan-2-yl]-4-[(2-imino-2,3-dihydro-1,3-oxazol-3-yl)methyl]-1H-1,3-benzodiazol-2-amine]
< 30 µM	CC(CO)(Nc1nc2c(CNc3ncco3)cccc2[nH]1)c1cccc(Cl)c1F (single isomer, unassigned; (+)) [Example 42a, (+)-2-(3-chloro-2-fluorophenyl)-2-[(4-{[(1,3-oxazol-2-yl)amino]methyl}-1H-1,3-benzodiazol-2-yl)amino]propan-1-ol]
< 30 µM	Cn1ccnc1NCc1cccc2[nH]c(NC(C)(CO)c3cccc(C(F)(F)F)c3)nc12 (centres unmarked) [Example 22, 2-((4-(((1-methyl-1H-imidazol-2-yl)amino)methyl)-1H-benzo[d]imidazol-2-yl)amino)-2-(3-(trifluoromethyl)phenyl)propan-1-ol]
< 30 µM	Cc1cn(Cc2cccc3[nH]c(NC(C)(CO)c4cccc(C(F)(F)F)c4)nc23)c(=N)o1 (single isomer, unassigned) [Example 24a]
< 30 µM	CN1CCN(Cc2cccc3[nH]c(NC(C)(CO)c4ccc(F)c(Cl)c4)nc23)C1=O (centres unmarked) [Example 35, 1-[(2-{[2-(3-chloro-4-fluorophenyl)-1-hydroxypropan-2-yl]amino}-1H-1,3-benzodiazol-4-yl)methyl]-3-methylimidazolidin-2-one]
< 30 µM	CC(CO)(Nc1nc2c(CN3CCCC3=O)cccc2[nH]1)c1ccc(F)c(Cl)c1 (centres unmarked) [Example 37, 1-[(2-{[2-(3-chloro-4-fluorophenyl)-1-hydroxypropan-2-yl]amino}-1H-1,3-benzodiazol-4-yl)methyl]pyrrolidin-2-one]
< 30 µM	CC(CO)(Nc1nc2c(Cn3ccoc3=N)cccc2[nH]1)c1cc(Cl)ccc1F (single isomer, unassigned; (+)) [Example 47b, (+)-2-(5-chloro-2-fluorophenyl)-2-({4-[(2-imino-2,3-dihydro-1,3-oxazol-3-yl)methyl]-1H-1,3-benzodiazol-2-yl}amino)propan-1-ol]
< 30 µM	COCC(C)(Nc1nc2c(Cn3ccoc3=N)cccc2[nH]1)c1cccc(Cl)c1 (centres unmarked) [Example 6, N-[2-(3-chlorophenyl)-1-methoxypropan-2-yl]-4-[(2-imino-2,3-dihydro-1,3-oxazol-3-yl)methyl]-1H-1,3-benzodiazol-2-amine]
